{"source": "ChEMBL document CHEMBL5537117", "about": "“Novel 3-hydroxypyridin-4(1H)-One derivatives as ferroptosis inhibitors with iron-chelating and reactive oxygen species scavenging activities and therapeutic effect in cisplatin-induced cytotoxicity” (Eur J Med Chem, 2024)", "key": {"HT-22 [1]": {"system": "HT-22", "experiment": "Anti-ferroptotic activity in erastin-induced ferroptosis in mouse HT-22 cells assessed as cell viability incubated for 24 hrs by MTT assay", "format": "functional, cell-based", "conditions": "HT-22, 24 h"}, "HT-22 [2]": {"system": "HT-22", "experiment": "Anti-ferroptotic activity against Erastin-induced ferroptosis in mouse HT-22 cells assessed as inhibition of LPO accumulation at 0.2 uM measured after 24 hrs by BODIPY-C11 based flow cytometry analysis relative to control", "format": "functional", "design": "scale not given: the % may be the effect or the level left"}, "[3]": {"experiment": "Antioxidant activity assessed as trolox equivalent of ORAC radical scavenging activity at 8 uM", "format": "functional"}, "[4]": {"experiment": "Antioxidant activity assessed as trolox equivalent of ORAC radical scavenging activity at 4 uM", "format": "functional"}, "[5]": {"experiment": "Antioxidant activity assessed as ABTS radical scavenging activity incubated in dark for 6 mins by absorbance based microplate reader analysis", "format": "functional"}, "HT-22 [6]": {"system": "HT-22", "experiment": "Anti-ferroptotic activity against Erastin-induced ferroptosis in mouse HT-22 cells assessed as reduction in LIP level by measuring fluorescence intensity measured after 24 hrs by FeRhoNox-1 based flow cytometry analysis", "format": "functional, cell-based", "conditions": "dose 20-100 µM"}, "HEK-293T [7]": {"system": "HEK-293T", "experiment": "Protection against cisplatin-induced cytotoxicity in HEK293T cells assessed as cell viability measured after 24 to 48 hrs by MTT assay", "format": "functional, cell-based", "conditions": "Homo sapiens"}, "[8]": {"experiment": "Acid dissociation constant, pKa3 of the compound in 0.1M KCl at pH 2.0 to 10.5 by UV absorption method", "format": "physicochemical"}, "HT-22 [9]": {"system": "HT-22", "experiment": "Anti-ferroptotic activity against Erastin-induced ferroptosis in mouse HT-22 cells assessed as reduction in LPO accumulation measured after 24 hrs by BODIPY-C11 based flow cytometry analysis", "format": "functional, cell-based", "conditions": "dose 20-100 µM"}, "[10]": {"experiment": "AUC (0 to t) in rat at 15 mg/kg, IG measured upto 24 hrs by UPLC-MS analysis", "format": "ADME, organism-based", "conditions": "in vivo, po"}, "[11]": {"experiment": "Log K3 of the compound in 0.1M KCl at pH 2.0 to 10.5 by UV absorption method", "format": "physicochemical"}, "[12]": {"experiment": "Volume of distribution at steady state in rat at 5 mg/kg, iv measured upto 24 hrs by UPLC-MS analysis", "format": "ADME, organism-based", "conditions": "in vivo, read-out: Vdss"}, "HEK-293T [13]": {"system": "HEK-293T", "experiment": "Protection against cisplatin-induced cytotoxicity in HEK293T cells assessed as reduction in ROS accumulation at 50 uM measured after 24 hrs by DCFH-DA based flow cytometry analysis", "format": "functional, cell-based", "conditions": "Homo sapiens"}, "[14]": {"experiment": "Half life in rat at 5 mg/kg, iv measured upto 24 hrs by UPLC-MS analysis", "format": "ADME, organism-based", "conditions": "in vivo"}, "[15]": {"experiment": "Oral bioavailability in rat at 15 mg/kg, IG measured upto 24 hrs by UPLC-MS analysis", "format": "ADME, organism-based", "conditions": "in vivo"}, "[16]": {"experiment": "Clearance in rat at 5 mg/kg, iv measured upto 24 hrs by UPLC-MS analysis", "format": "ADME, organism-based", "conditions": "in vivo"}, "HT-22 [17]": {"system": "HT-22", "experiment": "Anti-ferroptotic activity against Erastin-induced ferroptosis in mouse HT-22 cells assessed as reduction in ROS accumulation measured after 24 hrs by DCFH-DA based flow cytometry analysis", "format": "functional, cell-based", "conditions": "dose 20-100 µM"}, "[18]": {"experiment": "Metal chelating activity assessed as Fe3+ chelation"}, "[19]": {"experiment": "Volume of distribution at steady state in rat at 15 mg/kg, IG measured upto 24 hrs by UPLC-MS analysis", "format": "ADME, organism-based", "conditions": "in vivo, po"}, "HEK-293T [20]": {"system": "HEK-293T", "experiment": "Protection against cisplatin-induced cytotoxicity in HEK293T cells assessed as reduction in attenuation of intracellular Fe2+ at 30 to 80 uM measured after 24 hrs by FeRhoNox-1 based flow cytometry analysis", "format": "functional, cell-based", "conditions": "Homo sapiens, dose 30-80 µM"}, "[21]": {"experiment": "Half life in rat at 15 mg/kg, IG measured upto 24 hrs by UPLC-MS analysis", "format": "ADME, organism-based", "conditions": "in vivo, po"}, "[22]": {"experiment": "Cmax in rat at 5 mg/kg, iv measured upto 24 hrs by UPLC-MS analysis", "format": "ADME, organism-based", "conditions": "in vivo"}, "[23]": {"experiment": "Tmax in rat at 5 mg/kg, iv measured upto 24 hrs by UPLC-MS analysis", "format": "ADME, organism-based", "conditions": "in vivo"}, "[24]": {"experiment": "AUC (0 to t) in rat at 5 mg/kg, iv measured upto 24 hrs by UPLC-MS analysis", "format": "ADME, organism-based", "conditions": "in vivo"}, "[25]": {"experiment": "MRT (0 to infinity) in rat at 5 mg/kg, iv measured upto 24 hrs by UPLC-MS analysis", "format": "ADME, organism-based", "conditions": "in vivo"}, "HEK-293T [26]": {"system": "HEK-293T", "experiment": "Protection against cisplatin-induced cytotoxicity in HEK293T cells assessed as reduction in LPO accumulation at 50 uM measured after 24 hrs by BODIPY-C11 based flow cytometry analysis", "format": "functional, cell-based", "conditions": "Homo sapiens"}, "[27]": {"experiment": "AUC (0 to infinity) in rat at 5 mg/kg, iv measured upto 24 hrs by UPLC-MS analysis", "format": "ADME, organism-based", "conditions": "in vivo"}, "[28]": {"experiment": "Clearance in rat at 15 mg/kg, IG measured upto 24 hrs by UPLC-MS analysis", "format": "ADME, organism-based", "conditions": "in vivo, po"}, "[29]": {"experiment": "AUC (0 to infinity) in rat at 15 mg/kg, IG measured upto 24 hrs by UPLC-MS analysis", "format": "ADME, organism-based", "conditions": "in vivo, po"}, "[30]": {"experiment": "Tmax in rat at 15 mg/kg, IG measured upto 24 hrs by UPLC-MS analysis", "format": "ADME, organism-based", "conditions": "in vivo, po"}, "[31]": {"experiment": "Cmax in rat at 15 mg/kg, IG measured upto 24 hrs by UPLC-MS analysis", "format": "ADME, organism-based", "conditions": "in vivo, po"}, "[32]": {"experiment": "MRT (0 to infinity) in rat at 15 mg/kg, IG measured upto 24 hrs by UPLC-MS analysis", "format": "ADME, organism-based", "conditions": "in vivo, po"}, "[33]": {"experiment": "Log K2 of the compound in 0.1M KCl at pH 2.0 to 10.5 by UV absorption method", "format": "physicochemical"}, "[34]": {"experiment": "Acid dissociation constant, pKa1 of the compound in 0.1M KCl at pH 2.0 to 10.5 by UV absorption method", "format": "physicochemical"}, "[35]": {"experiment": "Log K1 of the compound in 0.1M KCl at pH 0.9 to 2.1 by UV absorption method", "format": "physicochemical"}, "HT-22 [36]": {"system": "HT-22", "experiment": "Cytotoxicity against mouse HT-22 cells assessed as reduction in cell viability at 150 uM by MTT assay relative to control", "format": "toxicity, cell-based", "conditions": "ht-22, 150 µM"}, "[37]": {"experiment": "Acid dissociation constant, pKa2 of the compound in 0.1M KCl at pH 2.0 to 10.5 by UV absorption method", "format": "physicochemical"}}, "note": "Activity calls are given as the source filed them. The calls are words filed in the database; no cut-off is given here."}
{"smiles": "CCOC(=O)c1ccc(NC2CCCCC2)c(N)c1", "values": [{"measurement": "EC50", "setting": "HT-22 [1]", "value": 0.191, "unit": "µM"}, {"measurement": "Activity", "setting": "HT-22 [2]", "value": 100, "unit": "%"}, {"measurement": "Activity", "setting": "[3]", "value": 9.43}, {"measurement": "Activity", "setting": "[4]", "value": 6.53}, {"measurement": "IC50", "setting": "[5]", "value": 6.27, "unit": "µM"}, {"measurement": "Activity", "setting": "HT-22 [6]", "value": "inactive"}, {"measurement": "EC50", "setting": "HEK-293T [7]", "value": 5.69, "unit": "µM"}]}
{"smiles": "Cc1c(O)c(=O)ccn1NC(=O)/C=C/c1cccc(F)c1", "values": [{"measurement": "pKa", "setting": "[8]", "value": 10.1}, {"measurement": "EC50", "setting": "HT-22 [1]", "value": 14.9, "unit": "µM"}, {"measurement": "Activity", "setting": "HT-22 [9]", "value": "Dose-Dependent Effect"}, {"measurement": "AUC(0-t) at 24 h", "setting": "[10]", "value": 120, "unit": "ng·h/mL"}, {"measurement": "log(activity)", "setting": "[11]", "value": 36.22}, {"measurement": "Vd", "setting": "[12]", "value": 0.07, "unit": "L/kg"}, {"measurement": "Activity", "setting": "HEK-293T [13]", "value": "Active"}, {"measurement": "half-life", "setting": "[14]", "value": 3.74, "unit": "h"}, {"measurement": "bioavailability", "setting": "[15]", "value": 8.06, "unit": "%"}, {"measurement": "CL", "setting": "[16]", "value": 0.33, "unit": "mL/min/kg"}, {"measurement": "Activity", "setting": "HT-22 [17]", "value": "Dose-Dependent Effect"}, {"measurement": "Activity", "setting": "[3]", "value": 36}, {"measurement": "Activity", "setting": "[18]", "value": 18.6}, {"measurement": "Vdss", "setting": "[19]", "value": 1.42, "unit": "L/kg"}, {"measurement": "Activity", "setting": "HEK-293T [20]", "value": "Active"}, {"measurement": "half-life", "setting": "[21]", "value": 5.83, "unit": "h"}, {"measurement": "Cmax", "setting": "[22]", "value": 472, "unit": "ng/mL"}, {"measurement": "Tmax", "setting": "[23]", "value": 8.4, "unit": "min"}, {"measurement": "AUC(0-t) at 24 h", "setting": "[24]", "value": 364, "unit": "ng·h/mL"}, {"measurement": "MRT inf", "setting": "[25]", "value": 2.34, "unit": "h"}, {"measurement": "Activity", "setting": "HEK-293T [26]", "value": "Active"}, {"measurement": "AUC", "setting": "[27]", "value": 365.99, "unit": "ng·h/mL"}, {"measurement": "CL", "setting": "[28]", "value": 2.33, "unit": "mL/min/kg"}, {"measurement": "AUC", "setting": "[29]", "value": 136.25, "unit": "ng·h/mL"}, {"measurement": "Activity", "setting": "[4]", "value": 23.8}, {"measurement": "Tmax", "setting": "[30]", "value": 0.19, "unit": "h"}, {"measurement": "IC50", "setting": "[5]", "value": 4.35, "unit": "µM"}, {"measurement": "Cmax", "setting": "[31]", "value": 24.1, "unit": "ng/mL"}, {"measurement": "MRT inf", "setting": "[32]", "value": 8.22, "unit": "h"}, {"measurement": "log(activity)", "setting": "[33]", "value": 26.56}, {"measurement": "Activity", "setting": "HT-22 [6]", "value": "Dose-Dependent Effect"}, {"measurement": "pKa", "setting": "[34]", "value": 2.32}, {"measurement": "log(activity)", "setting": "[35]", "value": 14.67}, {"measurement": "Activity", "setting": "HT-22 [36]", "value": "> 80", "unit": "%"}, {"measurement": "EC50", "setting": "HEK-293T [7]", "value": 24.9, "unit": "µM"}, {"measurement": "pKa", "setting": "[37]", "value": 6.78}]}
